US20020068827A1, “Quinoline-4-carboxamide derivatives, their preparation and their use as neurokinin 3 ( NK-3 ) - and neurokinin 2 ( NK-3 ) receptor antagonists” (SmithKline Beecham S.p.A., priority 1995, published 2002)
Structures can show the parent of a compound that is named as a salt.

How the values were obtained:
[1] = target: T1, human neurokinin-3 receptors expressed in CHO cell lines (Homo sapiens, UniProt P29371); test: Binding affinity in hNK-3-CHO; settings: human NK-3 receptors in CHO cell lines; radioligand [125I]-[Me-Phe7]-NKB
T1 construct: expressed in transfected cells; host or cells: CHO cells
T1 sequence (P29371 1-465): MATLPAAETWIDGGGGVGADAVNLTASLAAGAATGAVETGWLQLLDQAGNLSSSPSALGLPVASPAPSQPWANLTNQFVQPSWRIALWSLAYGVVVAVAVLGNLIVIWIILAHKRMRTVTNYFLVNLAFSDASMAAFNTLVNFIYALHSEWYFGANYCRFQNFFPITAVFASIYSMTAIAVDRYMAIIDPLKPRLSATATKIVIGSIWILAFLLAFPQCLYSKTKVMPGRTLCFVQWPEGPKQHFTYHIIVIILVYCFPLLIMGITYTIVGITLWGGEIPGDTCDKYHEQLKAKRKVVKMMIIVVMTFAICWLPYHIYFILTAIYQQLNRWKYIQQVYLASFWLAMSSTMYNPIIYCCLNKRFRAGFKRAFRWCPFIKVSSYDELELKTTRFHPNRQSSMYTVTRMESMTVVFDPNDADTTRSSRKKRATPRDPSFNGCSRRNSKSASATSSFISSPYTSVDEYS
Description: The activity of the compounds of the present invention, as NK3 ligands, is determined by their ability to inhibit the binding of the radiolabelled NK3 ligands. [^125I]-[Me-Phe^7]-NKB or [^3H]-Senktide, to guinea-pig and human NK3 receptors (Renzetti et al. 1991, Neuropeptide, 18, 104-114; Buell et al, 1992, FEBS, 299(1), 90-95; Chung et al, 1994, Biochem. Biophys. Res. Commun., 198(3), 967-972).
The binding assays utilized allow the determination of the concentration of the individual compound required to reduce by 50% the [^125I]-[Me-Phe^7]-NKB and [^3H]-Senktide specific binding to NK3 receptor in equilibrium conditions (IC50).
Binding assays provide for each compound tested a mean IC50 value of 2-5 separate experiments performed in duplicate or triplicate. […] The NK3-antagonist activity of the compounds of the present invention is determined by their ability to inhibit senktide-induced contraction of the guinea-pig ileum (Maggi et al, 1990, Br. J. Pharmacol., 101, 996-1000) and rabbit isolated iris sphincter muscle (Hall et al., 1991, Eur. J. Pharmacol., 199, 9-14) and human NK3 receptors-mediated Ca^++ mobilization (Mochizuki et al. 1994, J. Biol. Chem., 269, 9651-9658). Guinea-pig and rabbit in-vitro functional assays provide for each compound tested a mean KB value of 3-8 separate experiments, where KB is the concentration of the individual compound required to produce a 2-fold rightward shift in the concentration-response curve of senktide. Human receptor functional assay allows the determination of the concentration of the individual compound required to reduce by 50% (IC50 values) the Ca^++ mobilization induced by the agonist NKB. In this assay, the compounds of the present invention behave as antagonists.

Compound | melting point | IC50 [1] [nM]
CC[C@H](NC(=O)c1c(OCCCN2CCN(C)CC2)c(-c2ccccc2)nc2ccccc12)c1ccccc1 (as salt: HCl) [Example 31] | 160 to 170 °C | –
CC[C@H](NC(=O)c1c(OCCCN2CCN(c3ccccc3)CC2)c(-c2ccccc2)nc2ccccc12)c1ccccc1 (as salt: HCl) [Example 33] | 86 °C (dec.) | –
CC[C@H](NC(=O)c1c(OCCCN2CCN(c3ncccn3)CC2)c(-c2ccccc2)nc2ccccc12)c1ccccc1 (as salt: HCl) [Example 40] | 140 °C (dec.) | –
CC[C@H](NC(=O)c1c(OCCO)c(-c2ccccc2)nc2ccccc12)c1ccccc1 [Example 2, (S)-N-(α-ethylbenzyl)-3-(2-hydroxyethoxy)-2-phenylquinoline-4-carboxamide] | – | 1.6
CC[C@H](NC(=O)c1c(OCCN2Cc3ccccc3C2)c(-c2ccccc2)nc2ccccc12)c1ccccc1.Cl.Cl [Example 5, (S)-N-(α-ethylbenzyl)-3-[2-(2-isoindolinyl)ethoxy]-2-phenylquinoline-4-carboxamide Dihydrochloride] | 95 °C (dec.) | 1.2
CC[C@H](NC(=O)c1c(OCCN2C(=O)Cc3ccccc3C2=O)c(-c2ccccc2)nc2ccccc12)c1ccccc1 [Example 6, (S)-N-(α-ethylbenzyl)-3-(2-homophthalimidoethoxy)-2-phenylquinoline-4-carboxamide] | 159 to 161 °C | 0.8
CC[C@H](NC(=O)c1c(OCCCN2C(=O)c3ccccc3C2=O)c(-c2ccccc2)nc2ccccc12)c1ccccc1 [Example 9, (S)-N-(α-ethylbenzyl)-3-(3-phthalimidopropoxy)-2-phenylquinoline-4-carboxamide] | 125 to 128 °C | 3.2
CC[C@H](NC(=O)c1c(OCCCN)c(-c2ccccc2)nc2ccccc12)c1ccccc1 [Example 11, (S)-N-(α-ethylbenzyl)-3-(3-aminopropoxy)-2-phenylquinoline-4-carboxamide Hydrochloride] | – | 2.6
CC[C@H](NC(=O)c1c(OCCN2Cc3ccccc3CC2=O)c(-c2ccccc2)nc2ccccc12)c1ccccc1 [Example 14, (S)-N-(α-ethylbenzyl)-3-[2-(1,4-dihydro-3(2H)-isoquinolinon-2-yl)ethoxy]-2-phenylquinoline-4-carboxamide] | 153 to 156 °C | 1.7
CC[C@H](NC(=O)c1c(OCCN2C(=O)CCC2=O)c(-c2ccccc2)nc2ccccc12)c1ccccc1 [Example 15, (S)-N-(α-ethylbenzyl)-3-(2-succinimidoethoxy)-2-phenylquinoline-4-carboxamide] | 80 °C (dec.) | –
CC[C@H](NC(=O)c1c(OCCN2C(=O)C=CC2=O)c(-c2ccccc2)nc2ccccc12)c1ccccc1 [Example 16, (S)-N-(α-ethylbenzyl)-3-(2-maleimidoethoxy)-2-phenylquinoline-4-carboxamide] | 74 to 78 °C | –
CC[C@H](NC(=O)c1c(OCCN2C(=O)CNC2(C)C)c(-c2ccccc2)nc2ccccc12)c1ccccc1 [Example 17, (S)-N-(α-ethylbenzyl)-3-[2-(2,2-dimethyl-4-oxo-3-imidazolidinyl)ethoxy]-2-phenylquinoline-4-carboxamide] | 160 to 162 °C | 3.4
CC[C@H](NC(=O)c1c(OCCCN2CCN(c3ccccc3OC)CC2)c(-c2ccccc2)nc2ccccc12)c1ccccc1.Cl.Cl [Example 18, (S)-N-(α-ethylbenzyl)-3-{3-[4-(2-methoxyphenyl)piperazin-1-yl]propoxy}-2-phenylquinoline-4-carboxamide Dihydrochloride] | 151 to 155 °C | 0.4
CC[C@H](NC(=O)c1c(OCCN2C(=O)[C@@H](c3ccccc3)NC2(C)C)c(-c2ccccc2)nc2ccccc12)c1ccccc1 [Example 21, (S)-N-(α-ethylbenzyl)-3-{2-[2,2-dimethyl-5-(R)-phenyl-4-oxo-3-imidazolidinyl]ethoxy}-2-phenylquinoiine-4-carboxamide] | 147 to 150 °C | 0.9
CC[C@H](NC(=O)c1c(OCCN2CCc3ccccc3C2=O)c(-c2ccccc2)nc2ccccc12)c1ccccc1 [Example 22, (S)-N-(α-ethylbenzyl)-3-[2-(3,4-dihydro-1(2H)-isoquinolinon-2-yl)ethoxy]-2-phenylquinoline-4-carboxamide] | 71 °C (dec.) | 1.3
CC[C@H](NC(=O)c1c(CN2CCN(c3ccccc3)CC2)c(-c2ccccc2)nc2ccccc12)c1ccccc1 [Example 30] | 142 to 145 °C | 1.1
CC[C@H](NC(=O)c1c(OCCCN2CCN(C)CC2)c(-c2ccccc2)nc2ccccc12)c1ccccc1 [Example 31] | – | 3.3
CC[C@H](NC(=O)c1c(OCCCN2CCN(c3ccccc3)CC2)c(-c2ccccc2)nc2ccccc12)c1ccccc1 [Example 33] | – | 0.7
CC[C@H](NC(=O)c1c(OCCCN2CCN(c3cccc(Cl)c3)CC2)c(-c2ccccc2)nc2ccccc12)c1ccccc1 [Example 34] | 115 to 135 °C | 0.8
CC[C@H](NC(=O)c1c(OCCCN2CCN(c3ncccn3)CC2)c(-c2ccccc2)nc2ccccc12)c1ccccc1 [Example 40] | – | 1.1
CC[C@H](NC(=O)c1c(OCCCN2C(=O)c3nccnc3C2=O)c(-c2ccccc2)nc2ccccc12)c1ccccc1 [Example 42] | 100 to 105 °C | 2.7
